Data on 2 compounds can be found in ChEMBL document CHEMBL1148864, “Design of LFA-1 antagonists based on a 2,3-dihydro-1H-pyrrolizin-5(7aH)-one scaffold” (Bioorg Med Chem Lett, 2007).

Structures are written as SMILES.

For assay [1], the species on record is Homo sapiens. Conditions: 10 uM.
For assay [2], the species on record is Homo sapiens. To be noted: 1 uM.

Usually inhibition stands for the relative decrease from the control value, in per cent. In the case of `O=C1C(c2cc(Cl)cc(Cl)c2)=C(c2cc[nH]n2)[C@]2(Cc3ccc(Br)cc3)CCCN12`, in the assay listed under Homo sapiens [1], the inhibition stood at 30%.

In turn, `N#Cc1ccc(C[C@@]23CCCN2C(=O)C(c2cc(Cl)cc(Cl)c2)=C3O)cc1` came in with an inhibition in the assay listed under Homo sapiens [2] of 27%.
